Columns and labels:
HeLa cells = assay: EGFP mRNA complex delivery and eGFP expression in HeLa cells by flow cytometry; assay type: cell-based; conditions: complex with EGFP mRNA
Experimental: HeLa cells were subcultured in DMEM supplemented with 10% FBS (fetal bovine serum), dispensed into each well at 1-3×10^4 cells/well, and cultured at 37° C. for 24 hours. The cells were treated with the (+6)2(−6)2_conjugate 2_complex or the (+6)2(−6)2_conjugate 3_complex at a concentration of […], respectively, and incubated at 37° C. for 4 hours. Afterwards, the cells were washed with Dulbecco's phosphate-buffered saline (DPBS), trypsinized, and resuspended in DPBS supplemented with 10% cell dissociation buffer (GIBCO) and 1% FBS. Then, the expressed eGFP (enhanced green fluorescent protein) was analyzed using a flow cytometer (BD LSR II SORT flow cytometer, BD Bioscience, USA).

BALB/c nude mice = assay: In vivo delivery of EGFP mRNA complex, eGFP imaging by IVIS; conditions: subcutaneous injection, 0.1 mg/kg
Experimental: The complex ((+6)2(−6)2_conjugate 2_complex) was subcutaneously injected into BALB/c nude mice at 0.1 mg/kg, and then the expressed eGFP (enhanced green fluorescenct protein) was imaged and quantified with IVIS (in vivo imaging system). As a control group, only EGFP mRNA was used instead of the complex.

Structure (SMILES): CCCCCCCCCCCCCCCCCCC[C@H](CCCCNC(=O)CCCCCCCCCCCCCCC)C(=O)NCCCCC(NC(=O)[C@H](CCCCNC(=O)[C@H](CCCCNC(=O)[C@H](CCC(=O)O)NC(=O)[C@H](CCC(=O)O)NC(=O)[C@H](CCC(=O)O)NC(=O)[C@H](CCC(=O)O)NC(=O)[C@H](CCC(=O)O)NC(=O)[C@H](CCC(=O)O)NC(C)=O)NC(=O)[C@H](CCCNC(=N)N)NC(=O)[C@H](CCCNC(=N)N)NC(=O)[C@H](CCCNC(=N)N)NC(=O)[C@H](CCCNC(=N)N)NC(=O)[C@H](CCCNC(=N)N)NC(=O)[C@H](CCCNC(=N)N)NC(C)=O)NC(=O)[C@H](CCCCNC(=O)[C@H](CCC(=O)O)NC(=O)[C@H](CCC(=O)O)NC(=O)[C@H](CCC(=O)O)NC(=O)[C@H](CCC(=O)O)NC(=O)[C@H](CCC(=O)O)NC(=O)[C@H](CCC(=O)O)NC(C)=O)NC(=O)[C@H](CCCNC(=N)N)NC(=O)[C@H](CCCNC(=N)N)NC(=O)[C@H](CCCNC(=N)N)NC(=O)[C@H](CCCNC(=N)N)NC(=O)[C@H](CCCNC(=N)N)NC(=O)[C@H](CCCNC(=N)N)NC(C)=O)C(N)=O (stereo partly drawn) [Example 7]
- delivery of EGFP mRNA into cells (HeLa cells; 16 M or 32 M, 4 hours): successfully delivered the mRNA into the nucleus and cytoplasm of the cells
- efficiency of eGFP protein expression from internalized EGFP mRNA (HeLa cells; flow cytometry): 82.9%
- in vivo mRNA delivery and eGFP protein expression (IVIS) (BALB/c nude mice): successfully delivered the mRNA in vivo

— patent US20250064951A1, “DENDRITIC POLYELECTROLYTE ZWITTERIONS, JANUS-TYPE CONJUGATE COMPRISING SAME AND USES THEREOF” (ArtProBio Co., Ltd., priority 2023, published 2025)
